Assays:
[1] = tested on: U2OS/PD-L1 cells and Jurkat-PD-1-SHP cells; test: Src homology region 2 domain-containing phosphatase (SHP) assay; format: cell-based; conditions: Homo sapiens, U2OS; PathHunter chemiluminescence, 2 hours
Description: U2OS/PD-L1 cells (DiscoveRx Corporation) were maintained in McCoy's 5A medium with addition of 10% FBS, 0.25 μg/mL Puromycin. After removing the culture media, the cell medium was replaced with assay medium (RPMI1640 medium with 1% FBS). The U2OS/PD-L1 cells were then added in 384-well black clear bottom assay plate (CELLCOAT® Tissue Culture Plates, Greiner Bio-One) at 5000 cells per well in 20 μL assay medium. Test compounds were prepared by serial dilution in DMSO and 125 nL compound were first transferred to the 384 REMP plate well (Thermofisher) by ECHO liquid handler (Labcyte) followed with addition of 27.5 μL assay medium. 5 µL/well compounds in the assay medium were transferred to the cell plate with 0.05% DMSO in the final assay at 0.25 μM. Jurkat-PD-1-SHP cells (DiscoveRx Corporation) were cultured in RPMI1640 medium supplemented with 10% FBS, 250 μg/mL Hygromycin B, 500 μg/mL G418. After the replacement of culture media with assay medium, 5,000 Jurkat-PD-1-SHP cells in 20 μL were dispensed into each well. The assay plate was incubated at 37° C., 5% CO2 for 2 hours before 2.5 μL PathHunter reagent 1 (DiscoveRx Corporation) were added to each well. The assay plate was shaken for 1 min at 350 rpm in the dark followed with addition of 10 μL PathHunter reagent 2 (DiscoveRx Corporation). Chemiluminescent signal was recorded with TopCount reader (Perkin Elmer) after incubation at room temperature for 1 hour. Wells with DMSO were served as the positive controls and wells containing no cells were used as negative controls. IC50 determination was performed by fitting the curve of percentage of control activity versus the log of the compound concentration using the GraphPad Prism 6.0 software.

[2] = biological target: PD-L1 (Homo sapiens (Human), UniProt Q9NZQ7); test: PD-L1 whole blood internalization assay; format: cell-based; conditions: PD-L1 internalization in human whole blood, CD14+ cells, interferon γ, 24 hour
Description: To determine PD-L1 internalization in human whole blood, normal human blood (Biological Specialty Corp, Colmar. Pa.) was incubated in the presence or absence of a concentration range of test compounds and 1 ng/mL human interferon γ (R&D Systems Inc. Minn. […] Blood was then stained with PD-L1 (MIH1, eBioscience; or BD Biosciences San Jose, Calif.), CD14 (Life Technologies, Carlsbad, Calif.) for 30 minutes in the dark at room temperature. Whole Blood/red cells were lysed/fixed (lysis buffer BD Biosciences) for 5 minutes at 37° C. in the dark and then centrifuged at 1600 RPM for 5 minutes. Cells were resuspended in Stain Buffer (BD Bioscience, San Jose, Calif.) and transferred into 96 well round bottom plates (Corning). Cells were gated on CD14+(BD Biosciences) and PD-L1 expression determined by mean fluorescence intensity (MFI) (BD LSRFortessa™ X-20). IC50 determination was performed by fitting the curve of compound percent inhibition versus the log of the compound concentration using the GraphPad Prism 7.0 software.

[3] = tested on: PD-L1 aAPC/CHO-K1 cells and Jurkat-PD-1-NFAT effector cells; test: Nuclear factor of activated T-cells (NFAT) assay; format: cell-based; conditions: Cricetulus griseus, CHO-K1; luminescence, 24 hours
Description: PD-L1 aAPC/CHO-Klcells (Promega) were maintained in F-12 medium with addition of 10% FBS, 200 μg/mL Hygromycin B, 250 μg/mL Geneticin (G418). Jurkat-PD-1-NFAT effector cells (Promega) were cultured in RPMI 1640 medium supplemented with 10% FBS, 100 μg/mL Hygromycin B, 500 μg/mL G418. The culture media of PD-L1 aAPC/CHO-K1 cells were first replaced with assay medium (RPMI1640 medium with 1% FBS). The PD-L1 aAPC/CHO-Klcells were then added in a white 384-well white clear bottom assay plate (CELLCOAT® Tissue Culture Plates, Greiner Bio-One) at 8000 per well in 10 μL assay medium. Test compounds were prepared by serial dilution in DMSO and 0.8 μL test compounds in DMSO were first transferred to the 384 REMP plate well (Thermofisher) by PlateMate Plus (Thermofisher) followed with addition of 50 μL plating medium. 5 μL compounds in the assay medium were transferred to the cells with 0.4% DMSO in the final assay at 2 μM. After removing the culture media, 10,000 Jurkat-PD-1-NFAT effector cells in 5 μL assay medium was dispensed into each well. The assay plate was incubated at 37° C., 5% CO2 for 24 hours. After the assay plate was equilibrated to room temp for 15 minutes, 20 μL/well of Bio-Glo™ reagent (Promega) were added. After 8 minutes incubation at room temperature, luminescence was read at with Pherastar microplate reader (BMG Labtech). The fold of induction (FOI) was calculated based on the ratio of luminescence normalized to the DMSO wells within each assay plate. The maximum percentage of induction was reported based on the ratio between the highest FOI of each compound and the maximum FOI of control compound within each assay plate. Wells with DMSO were served as the negative controls and wells containing control compound with the highest FOI were used as positive controls. EC50 determination was performed by fitting the curve of percent control activity versus the log of the compound concentration using the GraphPad Prism 6.0 software.

[4] = biological target: PD-1/PD-L1 (Homo sapiens (Human), UniProt Q9NZQ7); test: Homogeneous Time-Resolved Fluorescence (HTRF) PD-1/PD-L1 binding assay; conditions: recombinant human PD-1 and PD-L1
Description: The assays were conducted in a standard black 384-well polystyrene plate with a final volume of 20 μL. Inhibitors were first serially diluted in DMSO and then added to the plate wells before the addition of other reaction components. The final concentration of DMSO in the assay was 1%. The assays were carried out at 25° C. in the PBS buffer (pH 7.4) with 0.05% Tween-20 and 0.1% BSA. Recombinant human PD-L1 protein (19-238) with a His-tag at the C-terminus was purchased from AcroBiosystems (PD1-H5229). Recombinant human PD-1 protein (25-167) with Fc tag at the C-terminus was also purchased from AcroBiosystems (PD1-H5257). PD-L1 and PD-1 proteins were diluted in the assay buffer and 10 μL was added to the plate well. Plates were centrifuged and proteins were preincubated with inhibitors for 40 minutes. The incubation was followed by the addition of 10 μL of HTRF detection buffer supplemented with Europium cryptate-labeled anti-human IgG (PerkinElmer-AD0212) specific for Fc and anti-His antibody conjugated to SureLight®-Allophycocyanin (APC, PerkinElmer-AD0059H). After centrifugation, the plate was incubated at 25° C. for 60 min. before reading on a PHERAstar FS plate reader (665 nm/620 nm ratio). Final concentrations in the assay were—3 nM PD1, 10 nM PD-L1, 1 nM europium anti-human IgG and 20 nM anti-His-Allophycocyanin. IC50 determination was performed by fitting the curve of percent control activity versus the log of the inhibitor concentration using the GraphPad Prism 5.0 software.

Chain of PD-L1 (Q9NZQ7 19-290): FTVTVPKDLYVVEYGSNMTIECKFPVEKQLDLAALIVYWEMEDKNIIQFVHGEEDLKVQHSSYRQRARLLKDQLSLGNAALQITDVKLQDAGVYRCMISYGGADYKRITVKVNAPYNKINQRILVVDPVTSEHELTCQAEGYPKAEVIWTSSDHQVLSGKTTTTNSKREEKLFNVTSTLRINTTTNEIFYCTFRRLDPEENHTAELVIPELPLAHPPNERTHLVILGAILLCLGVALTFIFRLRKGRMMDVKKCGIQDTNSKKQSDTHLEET
Chain of PD-1/PD-L1 (Q9NZQ7 19-238): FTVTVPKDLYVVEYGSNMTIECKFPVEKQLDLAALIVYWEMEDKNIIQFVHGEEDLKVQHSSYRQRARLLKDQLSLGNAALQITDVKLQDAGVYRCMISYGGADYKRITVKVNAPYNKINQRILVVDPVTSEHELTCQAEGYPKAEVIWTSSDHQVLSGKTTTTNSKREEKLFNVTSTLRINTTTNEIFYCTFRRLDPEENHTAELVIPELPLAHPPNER

Row | SMILES | IC50 [1] [nM] | IC50 [2] [nM] | EC50 [3] [nM] | IC50 [4] [nM]
1 | Cc1c(Nc2nc(C(F)F)nc3cc(CN4C[C@H](O)C[C@@H]4C)cnc23)cccc1-c1cccc(NC(=O)c2nc3c(n2C)CCN(CCC24CCC(C(=O)O)(CC2)C4)C3)c1Cl [Example 10, 4-(2-(2-((2-chloro-3′-((2-(difluoromethyl)-7-(((2S,4R)-4-hydroxy-2-methylpyrrolidin-1-yl)methyl)pyrido[3,2-d]pyrimidin-4-yl)amino)-2′-methyl-[1,1′-biphenyl]-3-yl)carbamoyl)-1-methyl-1,4,6,7-tetrahydro-5H-imidazo[4,5-c]pyridin-5-yl)ethyl)bicyclo[2.2.1]heptane-1-carboxylic Acid] | 4 | 35 | 4 | 1.5
2 | Cc1c(Nc2nc(C(F)F)nc3cc(CN4C[C@H](O)C[C@H]4C)cnc23)cccc1-c1cccc(NC(=O)c2nc3c(n2C)CCN(CCC24CCC(C(=O)O)(CC2)C4)C3)c1Cl [Example 11, 4-(2-(2-((2-chloro-3′-((2-(difluoromethyl)-7-(((2R,4R)-4-hydroxy-2-methylpyrrolidin-1-yl)methyl)pyrido[3,2-d]pyrimidin-4-yl)amino)-2′-methyl-[1,1′-biphenyl]-3-yl)carbamoyl)-1-methyl-1,4,6,7-tetrahydro-5H-imidazo[4,5-c]pyridin-5-yl)ethyl)bicyclo[2.2.1]heptane-1-carboxylic Acid] | 3 | 27 | 5 | 1.5
3 | Cc1c(Nc2nc(C(F)F)nc3cc(CN4C[C@@H](O)C[C@H]4C)cnc23)cccc1-c1cccc(NC(=O)c2nc3c(n2C)CCN(CCC24CCC(C(=O)O)(CC2)C4)C3)c1Cl [Example 12, 4-(2-(2-((2-chloro-3′-((2-(difluoromethyl)-7-(((2R,4S)-4-hydroxy-2-methylpyrrolidin-1-yl)methyl)pyrido[3,2-d]pyrimidin-4-yl)amino)-2′-methyl-[1,1′-biphenyl]-3-yl)carbamoyl)-1-methyl-1,4,6,7-tetrahydro-5H-imidazo[4,5-c]pyridin-5-yl)ethyl)bicyclo[2.2.1]heptane-1-carboxylic Acid] | 3 | 30 | 41 | 1.5
4 | Cc1c(Nc2nc(C(F)F)nc3cc(CN4CC(O)C4)cnc23)cccc1-c1cccc(NC(=O)c2nc3c(n2C)CCN(CCC24CCC(C(=O)O)(CC2)C4)C3)c1Cl [Example 13, 4-(2-(2-((2-chloro-3′-((2-(difluoromethyl)-7-((3-hydroxyazetidine-1-yl)methyl)pyrido[3,2-d]pyrimidin-4-yl)amino)-2′-methyl-[1,1′-biphenyl]-3-yl)carbamoyl)-1-methyl-1,4,6,7-tetrahydro-5H-imidazo[4,5-c]pyridin-5-yl)ethyl)bicyclo[2.2.1]heptane-1-carboxylic Acid] | 3 | 24 | 3 | 1.8
5 | Cc1c(Nc2nc(C(F)F)nc3cc(CN4CC(C)(O)C4)cnc23)cccc1-c1cccc(NC(=O)c2nc3c(n2C)CCN(CCC24CCC(C(=O)O)(CC2)C4)C3)c1Cl [Example 14, 4-(2-(2-((2-chloro-3′-((2-(difluoromethyl)-7-((3-hydroxy-3-methylazetidin-1-yl)methyl)pyrido[3,2-d]pyrimidin-4-yl)amino)-2′-methyl-[1,1′-biphenyl]-3-yl)carbamoyl)-1-methyl-1,4,6,7-tetrahydro-5H-imidazo[4,5-c]pyridin-5-yl)ethyl)bicyclo[2.2.1]heptane-1-carboxylic Acid] | 3 | 20 | 3 | 1.7
6 | Cc1c(NC(=O)c2nc3c(n2C)CCN(CCC24CCC(C(=O)O)(CC2)C4)C3)cccc1-c1cccc(Nc2nc(C(F)F)nc3cc(CN4CC[C@H](O)C4)cnc23)c1C [Example 15, (S)-4-(2-(2-((3′-((2-(difluoromethyl)-7-((3-hydroxypyrrolidin-1-yl)methyl)pyrido[3,2-d]pyrimidin-4-yl)amino)-2,2′-dimethyl-[1,1′-biphenyl]-3-yl)carbamoyl)-1-methyl-1,4,6,7-tetrahydro-5H-imidazo[4,5-c]pyridin-5-yl)ethyl)bicyclo[2.2.1]heptane-1-carboxylic Acid] | 2.9 | 57 | 9 | 1.5
7 | Cc1c(NC(=O)c2nc3c(n2C)CCN(CCC24CCC(C(=O)O)(CC2)C4)C3)cccc1-c1cccc(Nc2nc(C(F)F)nc3cc(CN4CC[C@](C)(O)C4)cnc23)c1C [Example 16, (S)-4-(2-(2-((3′-((2-(difluoromethyl)-7-((3-hydroxy-3-methylpyrrolidin-1-yl)methyl)pyrido[3,2-d]pyrimidin-4-yl)amino)-2,2′-dimethyl-[1,1′-biphenyl]-3-yl)carbamoyl)-1-methyl-1,4,6,7-tetrahydro-5H-imidazo[4,5-c]pyridin-5-yl)ethyl)bicyclo[2.2.1]heptane-1-carboxylic Acid] | 2.4 | 53 | 6 | 1.7
8 | Cc1c(NC(=O)c2nc3c(n2C)CCN(C)C3)cccc1-c1cccc(NC(=O)c2nc3c(n2C)CCN(CC24CCC(C(=O)O)(CC2)C4)C3)c1Cl [Example 119, reference compound] | 4.9 | 178 | 82 | 3.4
9 | CCN1CCc2c(nc(C(=O)Nc3cccc(-c4cccc(NC(=O)c5nc6c(n5C)CCN(CC57CCC(C(=O)O)(CC5)C7)C6)c4Cl)c3Cl)n2C)C1 [Example 176, reference compound] | 17 | 732 | 122 | 2.9

Source: patent US11401279B2, “Pyrido[3,2-d]pyrimidine compounds as immunomodulators” (Incyte Corporation, priority 2019, dated 2022)
